# Values joined by “and” are separate entries in the source; they are usually repeats but may differ in a detail not shown here. Equal values may be shown once. “Also recorded” adds a separate entry of the source.
# How the values were obtained:
# [1] = molecular target: T1, DAT (Rattus norvegicus, UniProt P23977); experiment: Dopamine transporter binding assay, displacement of [3H]WIN 35,428; settings: rat caudate-putamen membranes; read-out: DAT [3H]WIN 35,428 Ki ± SEM
# T1 construct: their brains removed to an ice-cooled dish for dissection of the caudate putamen; from tissue; host or cells: rat caudate putamen membranes (fresh homogenates)
# T1 sequence (P23977 whole entry): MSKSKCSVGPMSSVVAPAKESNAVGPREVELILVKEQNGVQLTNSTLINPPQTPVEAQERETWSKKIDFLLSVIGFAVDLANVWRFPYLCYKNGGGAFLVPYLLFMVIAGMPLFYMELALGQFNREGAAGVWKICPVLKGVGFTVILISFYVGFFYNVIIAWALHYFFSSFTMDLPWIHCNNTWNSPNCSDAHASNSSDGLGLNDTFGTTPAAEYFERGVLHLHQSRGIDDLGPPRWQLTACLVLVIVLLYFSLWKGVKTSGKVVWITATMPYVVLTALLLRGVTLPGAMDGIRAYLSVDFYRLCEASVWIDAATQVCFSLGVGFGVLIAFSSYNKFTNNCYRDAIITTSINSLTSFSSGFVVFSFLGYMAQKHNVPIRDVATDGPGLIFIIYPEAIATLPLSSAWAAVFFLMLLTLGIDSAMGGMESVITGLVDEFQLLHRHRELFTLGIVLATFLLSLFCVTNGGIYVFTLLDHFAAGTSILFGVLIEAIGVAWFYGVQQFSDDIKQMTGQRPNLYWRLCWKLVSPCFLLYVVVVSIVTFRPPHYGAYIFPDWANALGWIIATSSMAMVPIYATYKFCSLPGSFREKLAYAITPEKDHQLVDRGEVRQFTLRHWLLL
# [2] = molecular target: T2, SERT (Rattus norvegicus, UniProt P31652); experiment: [3H]Citalopram binding assay
# T2 construct: Membranes from frozen rat midbrain were homogenized; from tissue; host or cells: frozen rat midbrain membranes
# T2 sequence (P31652 whole entry): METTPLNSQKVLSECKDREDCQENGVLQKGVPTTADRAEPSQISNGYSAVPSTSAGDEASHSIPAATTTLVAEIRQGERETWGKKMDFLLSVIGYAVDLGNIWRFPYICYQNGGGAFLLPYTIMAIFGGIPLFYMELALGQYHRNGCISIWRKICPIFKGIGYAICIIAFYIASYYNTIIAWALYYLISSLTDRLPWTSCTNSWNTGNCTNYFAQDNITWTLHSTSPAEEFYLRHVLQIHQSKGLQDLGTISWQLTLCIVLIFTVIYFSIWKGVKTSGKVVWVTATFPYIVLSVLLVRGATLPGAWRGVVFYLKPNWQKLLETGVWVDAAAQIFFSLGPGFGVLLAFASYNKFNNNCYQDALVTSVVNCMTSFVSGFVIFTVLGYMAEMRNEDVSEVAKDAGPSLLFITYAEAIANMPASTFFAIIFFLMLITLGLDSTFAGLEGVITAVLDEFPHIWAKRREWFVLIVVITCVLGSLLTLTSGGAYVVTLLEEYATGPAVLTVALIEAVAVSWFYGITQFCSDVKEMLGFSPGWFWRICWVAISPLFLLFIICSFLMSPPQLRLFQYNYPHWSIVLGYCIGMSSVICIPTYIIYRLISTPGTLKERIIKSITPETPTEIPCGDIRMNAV
# Protocol: (§1) In order to understand the neurochemical and behavioral properties of the compounds of the present invention, exemplary benztropinamine analogs were evaluated for displacement of [^3H]WIN 35,428 (2β-carbomethoxy-3β-(4-fluorophenyl)tropane) binding to the DAT in rat caudate-putamen. These benztropinamine analogs were also evaluated for displacement of radiolabeled ligand binding at the serotonin (SERT) and norepinephrine (NET) transporters as well as the muscarinic m1 receptor (M1), Table 1, infra. The NET over DAT selectivity refers to the Ki ratio. When the Ki ratio is greater than 1, the compound is DAT selective. The DAT selectivities of the analogs over these binding sites are depicted in Table 2.
# [^3H]Citalopram Binding Assay. Membranes from frozen rat midbrain were homogenized in 20 volumes (w/v) of 50 mM Tris containing 120 mM NaCl and 5 mM KCl (pH 7.4 at 25° C.), using a Brinkman Polytron (at setting 6 for 20 sec). The tissue was centrifuged at 20,000×g for 10 min at 4° C. The resulting pellet was resuspended in buffer and recentrifuged. The final pellet was resuspended in cold buffer to a concentration of 15 mg/ml (original wet weight). Ligand binding experiments were conducted in assay tubes containing 0.5 ml of buffer, 1.4 nM [^3H]citalopram (New England Nuclear, Boston Mass.), and 1.5 mg midbrain tissue. The reaction was started with the addition of the tissue and the tubes were incubated for 60 min at 25° C. (room temperature). The incubation was terminated by rapid filtration through Whatman GF/B filters (presoaked in 0.3% polyethylenimine in water) using a Brandel Cell Harvester (Brandel Instruments Gaithersburg, Md.). The filters were washed twice with 5 ml cold buffer, transferred to scintillation vials to which Beckman Ready Safe was added. Nonspecific binding was determined using 10 μM fluoxetine (RBI, Natick, Mass.). Data were analyzed using GraphPad Prism software (San Diego, Calif.).
# [3] = system: NET; assay type: binding, rat; settings: Ki ratio
# Protocol: as §1
# [^3H]Nisoxetine Binding Assay. Membranes from frozen frontal cortex dissected from male Sprague-Dawley rats (Taconic Labs, Germantown, N.Y.) were homogenized in 20 volumes (w/v) of 50 mM Tris containing 120 mM NaCl and 5 mM KCl (pH 7.4 at 25° C.), using a Brinkman Polytron (at setting 6 for 20 sec). The tissue was centrifuged at 50,000×g for 10 min at 4° C. The resulting pellet was resuspended in buffer and recentrifuged. The final pellet was resuspended in cold buffer to a concentration of 80 mg/ml (original wet weight). Ligand binding experiments were conducted in assay tubes containing 0.5 ml buffer, 0.5 nM [3H]nisoxetine (New England Nuclear, Boston, Mass.), and 8 mg frontal cortex tissue. The reaction was started with the addition of the tissue and the tubes were incubated for 60 min at 0-4° C. The incubation was terminated by rapid filtration through Whatman GF/B filters, presoaked in 0.05% polyethylenimine, using a Brandel Cell Harvester (Brandel Instruments Gaithersburg, Md.). The filters were washed twice with 5 ml cold buffer, transferred to scintillation vials to which Beckman Ready Safe was added. Nonspecific binding was determined using 1 μM desipramine. Data were analyzed using GraphPad Prism software (San Diego, Calif.).
# [4] = molecular target: T3, muscarinic M1 receptor (Rattus norvegicus, UniProt P08482); experiment: [3H]Pirenzepine binding assay
# T3 construct: Membranes from frozen rat brains excluding cerebellum were thawed in ice-cold buffer; from tissue; host or cells: frozen rat brain (excluding cerebellum) membranes
# T3 sequence (P08482 1-460): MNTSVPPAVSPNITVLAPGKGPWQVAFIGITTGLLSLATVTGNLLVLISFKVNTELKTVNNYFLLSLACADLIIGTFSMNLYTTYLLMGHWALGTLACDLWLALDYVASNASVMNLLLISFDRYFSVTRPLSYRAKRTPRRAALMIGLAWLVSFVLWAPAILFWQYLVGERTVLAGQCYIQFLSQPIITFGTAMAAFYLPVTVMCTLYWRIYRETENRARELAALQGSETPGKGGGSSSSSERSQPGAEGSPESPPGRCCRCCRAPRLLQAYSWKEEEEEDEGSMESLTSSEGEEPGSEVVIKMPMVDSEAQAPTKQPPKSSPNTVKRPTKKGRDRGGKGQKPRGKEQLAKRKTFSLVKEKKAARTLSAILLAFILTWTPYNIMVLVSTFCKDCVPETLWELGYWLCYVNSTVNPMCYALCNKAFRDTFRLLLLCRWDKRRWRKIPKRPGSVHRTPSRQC
# Protocol: as §1, with “When the Ki ratio is greater than 1, the compound is DAT selective.” left out
# […] Binding Assay. Membranes from frozen rat brains excluding cerebellum were thawed in ice-cold buffer (10 mM Tris-HCl, 320 mM sucrose, pH 7.4) and homogenized with a Brinkman polytron in a volume of 10 ml/gm of tissue. The homogenate was centrifuged at 1,000×g for 10 min at 4° C. The resulting supernatant was then centrifuged at 10,000×g for 20 min at 4° C. The resulting pellet was resuspended in a volume of 200 mg/ml in 10 mM Tris buffer (pH 7.4). Ligand binding assays were conducted in tubes containing 0.5 ml of buffer (10 mM Tris-HCl, 5 mM MgCl2), 3 nM [^3H]pirenzepine (New England Nuclear, Boston, Mass.), and 20 mg of brain tissue. The reaction was started with the addition of the tissue and the tubes were incubated for 60 min in a 37° C. water bath. The incubation was terminated by the addition of 5 ml of ice-cold buffer (10 mM Tris-HCl, pH 7.4) and rapid filtration through Whatman GF/B glass fiber filter paper (presoaked in 0.5% polyethylenimine) using a Brandel Cell Harvester (Brandel Instruments, Gaithersburg, Md.). The filters were washed twice with 5 ml cold buffer, and transferred to scintillation vials to which absolute ethanol and Beckman Ready Safe was added. Quinuclidinyl benzilate (QNB), 100 μM final concentration, was used to determine non-specific binding. Data were analyzed by using GraphPad Prism software (San Diego, Calif.).
# [5] = system: mice; experiment: Locomotor stimulant effects (activity counts per minute); assay type: in vivo
# Text: In contrast, 2m produced much more modest increases in activity of around 100 counts per min.
# [6] = system: rats; experiment: Cocaine drug discrimination (cocaine-like subjective effects); assay type: in vivo; settings: rats trained to discriminate cocaine from vehicle, over the dose range tested, FIGS. 3A and 3B
# Text: FIG. 3A depicts % drug responding as a function of dose; FIG. 3B depicts % control response rate as a function of dose.
# Rats were trained to emit one response after an injection of cocaine and a different response after injection of vehicle. Once the subjects were well trained, they act as detectors of cocaine-like subjective effects.
compound,measurement,setting,value
O=C(CCN1[C@@H]2CC[C@H]1C[C@@H](NC(c1ccc(F)cc1)c1ccc(F)cc1)C2)Nc1ccccc1 [Compound 2m],Ki,[1],4.61 nM
same,Binding selectivity SERT/DAT,[2]; Ki ratio,132
same,Ki,"[2]; rat midbrain membranes, read-out: SERT [3H]citalopram Ki ± SEM",608 ± 41 nM
same,Binding selectivity NET/DAT,[3],535 and 536
same,Binding selectivity M1/DAT,[4]; Ki ratio,551
same,Ki,"[4]; rat brain membranes excluding cerebellum, read-out: M1 [3H]pirenzepine Ki ± SEM",2540 ± 124 nM
same,Cocaine-like locomotor stimulant effects,[5],lacks cocaine-like locomotor stimulant effects
same,Locomotor activity,"[5]; injected, at the most effective dose, FIG. 2",around 100 counts per min
same,Cocaine-like subjective effects (substitution for cocaine),[6],lacks cocaine-like subjective effects; also recorded: did not substitute for cocaine
